According to patent US8580747B2, “Cyclic natriuretic peptide constructs” (Palatin Technologies, Inc., priority 2006, dated 2013):
Where two headings read alike, the source gives them in different places. Bridge positions count the residues as written; N and C are the ends. Square brackets hold non-standard residues; d marks the D form. Peptide text beside a SMILES is read from it. * marks the point of attachment. Piperazin2one(3S-Bu,6R-CO) = CCCC[C@@H]1NC[C@H](C(=O)*)NC1=O; X2 = N=C(N)NCCC[C@@H]1C(=O)N[C@@H](C(N)=O)CN1*; X1 = N=C(N)NCCC[C@H]1C(=O)N[C@@H](C(N)=O)CN1*; dNle = CCCC[C@@H](N)C(=O)O; Heptanoyl = CCCCCCC(=O)*; Nle = CCCC[C@H](N)C(=O)O; Orn = NCCC[C@H](N)C(=O)O

Assays:
[1] = biological target: T1, NEP (neutral endopeptidase) (Homo sapiens, UniProt P08473); assay: hNEP resistance assay (digestion by neutral endopeptidase); format: in vitro ADME; conditions: pH 7.4
T1 construct: purchased R&D Systems, Minneapolis, Minn; 1182-ZN
Method: NEP resistance of various constructs of the invention was evaluated using the following experimental procedure. All constructs were diluted in 0.1 M Tris-HCL buffer (pH 7.4) to 100 μM. 40 μL of diluted constructs were added to each tube and all tubes were kept on ice. 40 μL of diluted NEP, either human recombinant NEP (R&D Systems, Minneapolis, Minn., catalogue #1182-ZN) at 8 ng/μL or mouse NEP (R&D Systems, catalog #1126-ZN) at 2.5 ng/μL, was added to each tube. The tubes were mixed gently and spun. […] At the end of the incubation time, the reaction was stopped by adding 5 μL of 10% TFA. […] The extent to which NEP was active against the constructs was then analyzed by HPLC and/or LC/MS. Data analysis included determining the percent of remaining starting material, i.e., undigested peptide construct, and the percent and sequence of each proteolytic fragment.

[2] = rat, in vivo, iv
[3] = rat, in vivo, sc
[4] = human, isolated enzyme neprilysin
[5] = human recombinant NEP (neutral endopeptidase), incubation with human recombinant NEP at 37° C., 1 h, read-out: hNEP % of Starting Material 1 h
[6] = human recombinant NEP (neutral endopeptidase), incubation with human recombinant NEP at 37° C., 2 h, read-out: hNEP % of Starting Material 2 h

T1 sequence (P08473 52-750 limits assumed): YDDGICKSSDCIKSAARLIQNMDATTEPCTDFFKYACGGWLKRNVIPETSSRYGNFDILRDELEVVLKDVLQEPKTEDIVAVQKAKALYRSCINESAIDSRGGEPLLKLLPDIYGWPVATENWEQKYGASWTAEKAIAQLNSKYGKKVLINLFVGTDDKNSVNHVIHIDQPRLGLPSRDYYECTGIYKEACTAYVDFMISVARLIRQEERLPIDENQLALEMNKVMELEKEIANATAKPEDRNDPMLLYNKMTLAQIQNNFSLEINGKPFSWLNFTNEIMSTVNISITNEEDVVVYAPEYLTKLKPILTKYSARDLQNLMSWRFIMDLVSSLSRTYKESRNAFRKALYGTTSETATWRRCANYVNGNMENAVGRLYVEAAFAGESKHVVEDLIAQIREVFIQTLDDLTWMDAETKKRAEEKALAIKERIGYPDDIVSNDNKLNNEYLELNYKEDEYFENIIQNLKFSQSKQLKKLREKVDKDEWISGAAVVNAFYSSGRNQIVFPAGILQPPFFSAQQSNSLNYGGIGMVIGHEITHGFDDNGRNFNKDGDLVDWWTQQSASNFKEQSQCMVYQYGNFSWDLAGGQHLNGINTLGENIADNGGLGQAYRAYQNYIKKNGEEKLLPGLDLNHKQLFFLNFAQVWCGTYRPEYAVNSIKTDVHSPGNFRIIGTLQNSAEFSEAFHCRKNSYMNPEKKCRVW

remaining at 1 h, 50 µM [1, 4] | remaining at 2 h, 50 µM [1, 4] | clearance [2] | AUC ([2]; 2 mg/kg) | Vd ([2]; 2 mg/kg) | clearance ([2]; 2 mg/kg) | half-life ([2]; 2 mg/kg) | SMILES | further results
93% | 86% | 0.9 L/h/kg | 1540 nM·h | 0.4 L/kg | 0.9 L/h/kg | 30 min | CCCC[C@@H]1NC[C@H](C(=O)N[C@H]2CSSC[C@@H](C(=O)N[C@@H](Cc3ccc(O)cc3)C(=O)N3C[C@H](C(N)=O)NC(=O)[C@@H]3CCCNC(=N)N)NC(=O)[C@H](CO)NC(=O)[C@H]([C@@H](C)CC)NC(=O)[C@H](CCCNC(=N)N)NC(=O)[C@@H](CC(=O)O)NC(=O)[C@H](CCCC)NC(=O)[C@H](CCCNC(=N)N)NC(=O)CNC(=O)CNC(=O)[C@H](Cc3ccccc3)NC(=O)[C@H](Cc3c[nH]cn3)NC2=O)NC1=O [1-44] ({Piperazin2one(3S-Bu,6R-CO)}-CHFGGR[Nle][dD]RISCY-X1; disulfide 1-12) | 
87% | 70% | 1.26 L/h/kg |  |  |  |  | CCCCCCC(=O)N[C@H]1CSSC[C@@H](C(=O)N[C@@H](Cc2ccc(O)cc2)C(=O)N2C[C@H](C(N)=O)NC(=O)[C@@H]2CCCNC(=N)N)NC(=O)[C@H](CO)NC(=O)[C@H]([C@@H](C)CC)NC(=O)[C@H](CCCNC(=N)N)NC(=O)[C@H](CC(=O)O)NC(=O)[C@@H](CCCC)NC(=O)[C@H](CCCNC(=N)N)NC(=O)CNC(=O)CNC(=O)[C@H](Cc2ccccc2)NC(=O)[C@H](Cc2c[nH]cn2)NC1=O [1-131] (Heptanoyl-CHFGGR[dNle]DRISCY-X1; disulfide 1-12) | 
91% | 82% | 3.3 L/h/kg | 263 nM·h | 0.7 L/kg | 4.32 L/h/kg | 12 min | CCCC[C@@H]1NC[C@H](C(=O)N[C@H]2CSSC[C@@H](C(=O)N[C@@H](Cc3ccc(O)cc3)C(=O)N3C[C@H](C(N)=O)NC(=O)[C@@H]3CCCNC(=N)N)NC(=O)[C@H](CO)NC(=O)[C@H]([C@@H](C)CC)NC(=O)[C@H](CCCNC(=N)N)NC(=O)[C@H](CC(=O)O)NC(=O)[C@H](CCCC)NC(=O)[C@H](CCCNC(=N)N)NC(=O)CNC(=O)CNC(=O)[C@H](Cc3ccccc3)NC(=O)[C@H](Cc3c[nH]cn3)NC2=O)NC1=O [1-18] ({Piperazin2one(3S-Bu,6R-CO)}-CHFGGR[Nle]DRISCY-X1; disulfide 1-12) | AUC ([2]; 0.3 mg/kg): 61 nM·h; Vd ([2]; 0.3 mg/kg): 0.4 L/kg; clearance ([2]; 0.3 mg/kg): 2.58 L/h/kg; half-life ([2]; 0.3 mg/kg): 12 min; AUC ([3]; 1 mg/kg): 40 nM·h; Cmax ([3]; 1 mg/kg): 0.085 µM; Tmax ([3]; 1 mg/kg): 6 min; half-life ([3]; 1 mg/kg): 12 min; AUC ([3]; 5 mg/kg): 255 nM·h; Cmax ([3]; 5 mg/kg): 0.131 µM; Tmax ([3]; 5 mg/kg): 12 min; half-life ([3]; 5 mg/kg): 96 min
 |  | 0.72 L/h/kg |  |  |  |  | CCCC[C@@H]1NC[C@H](C(=O)N[C@H]2CSSC[C@@H](C(=O)N[C@@H](Cc3ccc(O)cc3)C(=O)N3C[C@H](C(N)=O)NC(=O)[C@H]3CCCNC(=N)N)NC(=O)[C@H](CO)NC(=O)[C@H]([C@@H](C)CC)NC(=O)[C@H](CCCNC(=N)N)NC(=O)[C@H](CC(=O)O)NC(=O)[C@@H](CCCC)NC(=O)[C@H](CCCNC(=N)N)NC(=O)CNC(=O)[C@@H](C)NC(=O)[C@H](Cc3ccccc3)NC(=O)[C@H](Cc3c[nH]cn3)NC2=O)NC1=O [1-133] ({Piperazin2one(3S-Bu,6R-CO)}-CHF[dA]GR[dNle]DRISCY-X2; disulfide 1-12) | remaining at 1 h, 50 µM [1, 5]: 96%; remaining at 2 h, 50 µM [1, 6]: 93%
 |  | 3.96 L/h/kg | 277 nM·h | 1 L/kg | 3.96 L/h/kg | 12 min | CCCC[C@@H]1NC[C@H](C(=O)N[C@H]2CSSC[C@@H](C(=O)N[C@@H](Cc3ccc(O)cc3)C(=O)N3C[C@H](C(N)=O)NC(=O)[C@@H]3CCCNC(=N)N)NC(=O)[C@H](CO)NC(=O)[C@H]([C@@H](C)CC)NC(=O)[C@H](CCCNC(=N)N)NC(=O)[C@H](CC(=O)O)NC(=O)[C@H](CCCC)NC(=O)[C@H](CCCN)NC(=O)CNC(=O)CNC(=O)[C@H](Cc3ccccc3)NC(=O)[C@H](Cc3c[nH]cn3)NC2=O)NC1=O [1-54] ({Piperazin2one(3S-Bu,6R-CO)}-CHFGG[Orn][Nle]DRISCY-X1; disulfide 1-12) | remaining at 1 h, 50 µM [1, 5]: 85%; remaining at 2 h, 50 µM [1, 6]: 82%
87% | 78% | 2.4 L/h/kg |  |  |  |  | CCCC[C@@H]1NC[C@H](C(=O)N[C@H]2CSSC[C@@H](C(=O)N[C@H](Cc3ccc(O)cc3)C(=O)N3C[C@H](C(N)=O)NC(=O)[C@@H]3CCCNC(=N)N)NC(=O)[C@H](CO)NC(=O)[C@H]([C@@H](C)CC)NC(=O)[C@H](CCCNC(=N)N)NC(=O)[C@H](CC(=O)O)NC(=O)[C@H](CCCC)NC(=O)[C@H](CCCNC(=N)N)NC(=O)CNC(=O)CNC(=O)[C@H](Cc3ccccc3)NC(=O)[C@H](Cc3c[nH]cn3)NC2=O)NC1=O [1-53] ({Piperazin2one(3S-Bu,6R-CO)}-CHFGGR[Nle]DRISC[dY]-X1; disulfide 1-12) | 
 |  | 27.4 L/h/kg | 42 nM·h | 0.8 L/kg | 27.4 L/h/kg | 6 min | CCCC[C@@H]1NC[C@H](C(=O)N[C@H]2CSSC[C@@H](C(=O)N[C@@H](Cc3ccc(O)cc3)C(=O)N3C[C@H](C(N)=O)NC(=O)[C@@H]3CCCNC(=N)N)NC(=O)[C@H](CO)NC(=O)[C@H]([C@@H](C)CC)NC(=O)[C@H](C)NC(=O)[C@H](CC(=O)O)NC(=O)[C@H](CCCC)NC(=O)[C@H](C)NC(=O)CNC(=O)CNC(=O)[C@H](Cc3ccccc3)NC(=O)[C@H](Cc3c[nH]cn3)NC2=O)NC1=O [1-100] ({Piperazin2one(3S-Bu,6R-CO)}-CHFGGA[Nle]DAISCY-X1; disulfide 1-12) | remaining at 1 h, 50 µM [1, 5]: 6%; remaining at 2 h, 50 µM [1, 6]: 0%
 |  |  | 113 nM·h | 0.8 L/kg | 10.1 L/h/kg | 6 min | CCCC[C@@H]1NC[C@H](C(=O)N[C@H]2CSSC[C@@H](C(=O)N[C@@H](Cc3ccc(O)cc3)C(=O)N3C[C@H](C(N)=O)NC(=O)[C@@H]3CCCNC(=N)N)NC(=O)[C@H](C)NC(=O)[C@H]([C@@H](C)CC)NC(=O)[C@H](CCCNC(=N)N)NC(=O)[C@H](CC(=O)O)NC(=O)[C@H](CCCC)NC(=O)[C@H](CCCNC(=N)N)NC(=O)CNC(=O)CNC(=O)[C@H](Cc3ccccc3)NC(=O)[C@H](C)NC2=O)NC1=O [1-69] ({Piperazin2one(3S-Bu,6R-CO)}-CAFGGR[Nle]DRIACY-X1; disulfide 1-12) | 
96% | 92% | 0.6 L/h/kg |  |  |  |  | CCCC[C@@H]1NC[C@H](C(=O)N[C@H]2CSSC[C@@H](C(=O)N[C@@H](Cc3ccc(O)cc3)C(=O)N3C[C@H](C(N)=O)NC(=O)[C@H]3CCCNC(=N)N)NC(=O)[C@H](CO)NC(=O)[C@H]([C@@H](C)CC)NC(=O)[C@@H](CCCNC(=N)N)NC(=O)[C@H](CC(=O)O)NC(=O)[C@H](CCCC)NC(=O)[C@@H](CCCNC(=N)N)NC(=O)CNC(=O)CNC(=O)[C@H](Cc3ccccc3)NC(=O)[C@H](Cc3c[nH]cn3)NC2=O)NC1=O [1-118] ({Piperazin2one(3S-Bu,6R-CO)}-CHFGG[dR][Nle]D[dR]ISCY-X2; disulfide 1-12) | 
97% | 92% | 0.84 L/h/kg | 1250 nM·h | 0.6 L/kg | 0.84 L/h/kg | 42 min | CCCC[C@@H]1NC[C@H](C(=O)N[C@H]2CSSC[C@@H](C(=O)N[C@@H](Cc3ccc(O)cc3)C(=O)N3C[C@H](C(N)=O)NC(=O)[C@@H]3CCCNC(=N)N)NC(=O)[C@H](CO)NC(=O)[C@H]([C@@H](C)CC)NC(=O)[C@H](CCCNC(=N)N)NC(=O)[C@H](CC(=O)O)NC(=O)[C@@H](CCCC)NC(=O)[C@H](CCCNC(=N)N)NC(=O)CNC(=O)CNC(=O)[C@H](Cc3ccccc3)NC(=O)[C@H](Cc3c[nH]cn3)NC2=O)NC1=O [1-43] ({Piperazin2one(3S-Bu,6R-CO)}-CHFGGR[dNle]DRISCY-X1; disulfide 1-12) | 
 |  |  | 850 nM·h | 0.3 L/kg | 1.38 L/h/kg | 18 min | CCCC[C@@H]1NC[C@H](C(=O)N[C@H]2CSSC[C@@H](C(=O)N[C@@H](Cc3ccc(O)cc3)C(=O)N3C[C@H](C(N)=O)NC(=O)[C@@H]3CCCNC(=N)N)NC(=O)[C@H](CO)NC(=O)[C@H]([C@@H](C)CC)NC(=O)[C@@H](CCCNC(=N)N)NC(=O)[C@H](CC(=O)O)NC(=O)[C@H](CCCC)NC(=O)[C@H](CCCNC(=N)N)NC(=O)CNC(=O)CNC(=O)[C@H](Cc3ccccc3)NC(=O)[C@H](Cc3c[nH]cn3)NC2=O)NC1=O [1-45] ({Piperazin2one(3S-Bu,6R-CO)}-CHFGGR[Nle]D[dR]ISCY-X1; disulfide 1-12) | 

SMILES | remaining at 1 h, 50 µM [1, 4] | remaining at 2 h, 50 µM [1, 4] | clearance [2] | AUC ([2]; 2 mg/kg) | Vd ([2]; 2 mg/kg) | clearance ([2]; 2 mg/kg) | half-life ([2]; 2 mg/kg) | further results
CCCCCCC(=O)N[C@H]1CSSC[C@@H](C(=O)N[C@@H](Cc2ccc(O)cc2)C(=O)N2C[C@H](C(N)=O)NC(=O)[C@@H]2CCCNC(=N)N)NC(=O)[C@H](CO)NC(=O)[C@H]([C@@H](C)CC)NC(=O)[C@H](CCCNC(=N)N)NC(=O)[C@H](CC(=O)O)NC(=O)[C@H](CCCC)NC(=O)[C@H](CCCNC(=N)N)NC(=O)CNC(=O)[C@@H](C)NC(=O)[C@H](Cc2ccccc2)NC(=O)[C@H](Cc2c[nH]cn2)NC1=O [1-130] (Heptanoyl-CHF[dA]GR[Nle]DRISCY-X1; disulfide 1-12) |  |  | 5.52 L/h/kg |  |  |  |  | remaining at 1 h, 50 µM ([1]; isolated enzyme neprilysin, incubation with human recombinant NEP at 37° C., 1 h, read-out: hNEP % of Starting Material 1 h): 75%; remaining at 2 h, 50 µM ([1]; isolated enzyme neprilysin, incubation with human recombinant NEP at 37° C., 2 h, read-out: hNEP % of Starting Material 2 h): 56%
